Columns and labels:
[1] = Optical properties of the fluorophores measured in ethanol, compared to ICG; assay type: physicochemical; conditions: for Φ^a (%): compared to ICG
Summary of the method: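 Values cover absorption and emission maxima, Stokes shift, quantum yield and molar extinction coefficient. All were obtained for each fluorophore in ethanol, with a reference dye measured for comparison.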

[2] = Solvatochromism: absorption maximum in different solvents; assay type: physicochemical

SMILES | Stokes Shift (nm) [1] | λabs (nm) [1] | λem (nm) [1] | ϵ (cm^−1 M^−1) [1] | Φ^a (%) [1] | λabs (nm) Acetonitrile [2] | λabs (nm) DMSO [2] | λabs (nm) Ethanol [2] | λabs (nm) Methanol [2]
CCN1C(=CC=C2CCCC(C=C(C#N)C(=O)O)=C2Cl)C(C)(C)c2ccccc21 [Compound 47] | 20 nm | 780 nm | 800 nm | 179,500 cm^−1 M^−1 | 12.3% |  |  |  | 
CCCCN1C(=CC=C2CCCC(C=C(C#N)C(=O)O)=C2Cl)C(C)(C)c2ccccc21 [Compound 48] | 17 nm | 785 nm | 802 nm | 181,400 cm^−1 M^−1 | 12.1% |  |  |  | 
CN1C(=CC=C2CCCC(C=C(C#N)C(=O)O)=C2Cl)C(C)(C)c2cc(F)ccc21 [Compound 49] | 15 nm | 780 nm | 795 nm | 195,100 cm^−1 M^−1 | 12.6% |  |  |  | 
CCN1C(=CC=C2CCCC(C=C(C#N)C(=O)O)=C2Cl)C(C)(C)c2cc(F)ccc21 [Compound 50] | 14 nm | 780 nm | 799 nm | 165,300 cm^−1 M^−1 | 12.2% |  |  |  | 
CCCCN1C(=CC=C2CCCC(C=C(C#N)C(=O)O)=C2Cl)C(C)(C)c2cc(F)ccc21 [Compound 51] | 17 nm | 785 nm | 802 nm | 176,400 cm^−1 M^−1 | 11.9% |  |  |  | 
CN1C(=CC=C2CCCC(C=C(C#N)C(=O)O)=C2Cl)C(C)(C)c2cc(Br)ccc21 [Compound 52] | 16 nm | 790 nm | 806 nm | 153,600 cm^−1 M^−1 | 11.8% |  |  |  | 
CCN1C(=CC=C2CCCC(C=C(C#N)C(=O)O)=C2Cl)C(C)(C)c2cc(Br)ccc21 [Compound 53] | 17 nm | 790 nm | 807 nm | 171,000 cm^−1 M^−1 | 11.8% |  |  |  | 
CCN1C(=CC=C2CCCC(C=C(C#N)C(=O)O)=C2Cl)C(C)(C)c2cc(Cl)ccc21 [Compound 54] | 15 nm | 790 nm | 805 nm | 156,500 cm^−1 M^−1 | 12.0% |  |  |  | 
CCCCN1C(=CC=C2CCCC(C=C(C#N)C(=O)O)=C2Cl)C(C)(C)c2cc(Cl)ccc21 [Compound 55] | 13 nm | 795 nm | 808 nm | 115,500 cm^−1 M^−1 | 11.5% |  |  |  | 
CCCCN1/C(=C/C=C2\CCCC(/C=C(\C#N)C(=O)O)=C2Cl)C(C)(C)c2c1ccc1ccccc21 [Compound 56] | 7 nm | 820 nm | 827 nm | 151,100 cm^−1 M^−1 | 9.6% |  |  |  | 
CCCCN1/C(=C/C=C2\CCCC(/C=C(\C#N)C(=O)O)=C2Cl)Sc2ccccc21 [Compound 57] | 14 nm | 800 nm | 814 nm | 198,700 cm^−1 M^−1 | 10.5% |  |  |  | 
CCN1C(=CC=C2CC(C(C)(C)C)CC(C=C(C#N)C(=O)O)=C2Cl)C(C)(C)c2ccccc21 (stereo not drawn) [Compound 58] | 17 nm | 780 nm | 797 nm | 138,200 cm^−1 M^−1 | 12.7% |  |  |  | 
CCN1C(=CC=C2CC(C(C)(C)C)CC(C=C(C#N)C(=O)O)=C2Cl)C(C)(C)c2cc(F)ccc21 (stereo not drawn) [Compound 59] | 19 nm | 780 nm | 799 nm | 123,000 cm^−1 M^−1 | 12.5% |  |  |  | 
CCCCN1C(=CC=C2CC(C(C)(C)C)CC(C=C(C#N)C(=O)O)=C2Cl)C(C)(C)c2cc(F)ccc21 (stereo not drawn) [Compound 60] | 18 nm | 785 nm | 803 nm | 137,400 cm^−1 M^−1 | 12.6% |  |  |  | 
CCN1C(=CC=C2CC(C(C)(C)C)CC(C=C(C#N)C(=O)O)=C2Cl)C(C)(C)c2cc(Br)ccc21 (stereo not drawn) [Compound 61] | 15 nm | 790 nm | 805 nm | 123,500 cm^−1 M^−1 | 11.4% |  |  |  | 

More lines, now with the values ahead:

Stokes Shift (nm) [1] | λabs (nm) [1] | λem (nm) [1] | ϵ (cm^−1 M^−1) [1] | Φ^a (%) [1] | λabs (nm) Acetonitrile [2] | λabs (nm) DMSO [2] | λabs (nm) Ethanol [2] | λabs (nm) Methanol [2] | SMILES
15 nm | 790 nm | 805 nm | 114,100 cm^−1 M^−1 | 11.5% |  |  |  |  | CCN1C(=CC=C2CC(C(C)(C)C)CC(C=C(C#N)C(=O)O)=C2Cl)C(C)(C)c2cc(Cl)ccc21 (stereo not drawn) [Compound 62]
6 nm | 815 nm | 821 nm | 167,100 cm^−1 M^−1 | 9.8% |  |  |  |  | CN1C(=CC=C2CC(C(C)(C)C)CC(C=C(C#N)C(=O)O)=C2Cl)C(C)(C)c2c1ccc1ccccc21 (stereo not drawn) [Compound 63]
8 nm | 820 nm | 828 nm | 146,300 cm^−1 M^−1 | 7.3% |  |  |  |  | CCCCN1C(=CC=C2CC(C(C)(C)C)CC(C=C(C#N)C(=O)O)=C2Cl)C(C)(C)c2c1ccc1ccccc21 (stereo not drawn) [Compound 64]
12 nm | 800 nm | 812 nm | 192,000 cm^−1 M^−1 | 10.5% |  |  |  |  | CCCCN1/C(=C/C=C2\CC(C(C)(C)C)CC(/C=C(\C#N)C(=O)O)=C2Cl)Sc2ccccc21 (stereo not drawn) [Compound 65]
15 nm | 780 nm | 795 nm | 155,700 cm^−1 M^−1 | 12.4% |  |  |  |  | CCN1C(=CC=C2CC(c3ccccc3)CC(C=C(C#N)C(=O)O)=C2Cl)C(C)(C)c2ccccc21 (stereo not drawn) [Compound 66]
16 nm | 780 nm | 796 nm | 124,700 cm^−1 M^−1 | 12.3% |  |  |  |  | CCN1C(=CC=C2CC(c3ccccc3)CC(C=C(C#N)C(=O)O)=C2Cl)C(C)(C)c2cc(F)ccc21 (stereo not drawn) [Compound 67]
15 nm | 790 nm | 805 nm | 167,800 cm^−1 M^−1 | 12.1% |  |  |  |  | CCN1C(=CC=C2CC(c3ccccc3)CC(C=C(C#N)C(=O)O)=C2Cl)C(C)(C)c2cc(Br)ccc21 (stereo not drawn) [Compound 68]
11 nm | 790 nm | 801 nm | 136,500 cm^−1 M^−1 | 11.7% |  |  |  |  | CCN1C(=CC=C2CC(c3ccccc3)CC(C=C(C#N)C(=O)O)=C2Cl)C(C)(C)c2cc(Cl)ccc21 (stereo not drawn) [Compound 69]
17 nm | 780 nm | 797 nm | 144,100 cm^−1 M^−1 | 12.1% |  |  |  |  | CCN1C(=CC=C2CCCC(C=C(C#N)C#N)=C2Cl)C(C)(C)c2ccccc21 [Compound 71]
15 nm | 785 nm | 800 nm | 143,900 cm^−1 M^−1 | 12.1% |  |  |  |  | CCCCN1C(=CC=C2CCCC(C=C(C#N)C#N)=C2Cl)C(C)(C)c2ccccc21 [Compound 72]
17 nm | 785 nm | 802 nm | 168,800 cm^−1 M^−1 | 12.2% |  |  |  |  | CCCCN1C(=CC=C2CCCC(C=C(C#N)C#N)=C2Cl)C(C)(C)c2cc(F)ccc21 [Compound 73]
19 nm | 790 nm | 809 nm | 152,300 cm^−1 M^−1 | 11.3% | 790 nm | 800 nm | 790 nm | 785 nm | CCN1C(=CC=C2CCCC(C=C(C#N)C#N)=C2Cl)C(C)(C)c2cc(Br)ccc21 [Compound 74]
15 nm | 790 nm | 805 nm | 145,400 cm^−1 M^−1 | 11.5% |  |  |  |  | CCN1C(=CC=C2CCCC(C=C(C#N)C#N)=C2Cl)C(C)(C)c2cc(Cl)ccc21 [Compound 75]
6 nm | 820 nm | 826 nm | 146,400 cm^−1 M^−1 | 8.8% | 820 nm | 835 nm | 820 nm | 820 nm | CCCCN1/C(=C/C=C2\CCCC(C=C(C#N)C#N)=C2Cl)C(C)(C)c2c1ccc1ccccc21 [Compound 76]
15 nm | 800 nm | 815 nm | 134,400 cm^−1 M^−1 | 11.5% | 790 nm | 810 nm | 800 nm | 795 nm | CCN1C(=CC=C2CCCC(C=C(C#N)C(=O)O)=C2Sc2ccncc2)C(C)(C)c2ccccc21 [Compound 77]
126 nm | 665 nm | 791 nm | 64,200 cm^−1 M^−1 | 18.3% |  |  |  |  | CN1C(=CC=C2CCCC(C=C(C#N)C(=O)O)=C2N2CCC(CO)CC2)C(C)(C)c2cc(Br)ccc21 [Compound 81]
122 nm | 670 nm | 792 nm | 75,300 cm^−1 M^−1 | 17.4% |  |  |  |  | CCN1C(=CC=C2CCCC(C=C(C#N)C(=O)O)=C2N2CCC(CO)CC2)C(C)(C)c2cc(Cl)ccc21 [Compound 83]
143 nm | 645 nm | 788 nm | 60,000 cm^−1 M^−1 | 19.9% |  |  |  |  | CCN1C(=CC=C2CC(C(C)(C)C)CC(C=C(C#N)C(=O)O)=C2N2CCC(CO)CC2)C(C)(C)c2cc(Cl)ccc21 (stereo not drawn) [Compound 85]

— patent publication US20250152751A1, “RED-SHIFTED FLUOROPHORES AND METHODS OF USING THE SAME” (GEORGIA STATE UNIVERSITY RESEARCH FOUNDATION, INC., priority 2022, published 2025)
